Source: US12310947B2, “Methods and compositions for unsilencing imprinted genes” (priority 2019, dated 2025)
Entries after “also recorded” stand apart in the source; their conditions may differ.

Columns and labels:
Top2a = biological target: T1, Top2a (Homo sapiens, UniProt P11388); experiment: Topoisomerase-based DNA relaxation assay, Top2a (kDNA decatenation); type: biochemical; details: catenated versus decatenated kDNA on agarose gel
T1 construct: purchased TopoGEN
Description: Quantitative real-time PCR and topoisomerase-based DNA relaxation assay: Quantitative real-time PCR (qPCR) was performed using previously reported protocols. Briefly, total RNA was extracted from cultured cortical neurons carrying Ube3a^m+/pYFP after drug treatment using Direct-zol RNA kit (Zymo Research). cDNA pool was synthesized using 2 μg of total RNA and qScript cDNA Supermix (Quantabio). qPCR was performed using SsoAdvanced Universal SYBR green Supermix (Bio-rad). The primer sets were β-actin (forward, 5′-[…]-3′, SEQ ID NO:1; reverse, 5′-[…]-3, SEQ ID NO:2), YFP (forward, 5′-[…]-3′, SEQ ID NO:3; reverse, 5′-[…]-3′, SEQ ID NO:4), Ube3a-ATS (forward, 5′-[…]-3′, SEQ ID NO:5; reverse, 5′-[…]-3′, SEQ ID NO:6), Snrpn (forward, 5′-[…]-3′, SEQ ID NO:7; reverse, 5′-[…]-3′, SEQ ID NO:8), and Snord116 (forward, 5′-[…]-3′, SEQ ID NO:9; reverse, 5′-[…]-3′, SEQ ID NO:10). qPCR was performed using QuantStudio thermocycler (Thermo Fisher) with the following conditions: 95° C. for 5 min and followed by 40 cycles of 95° C. 10 sec, 60° C. 1 min. Relative quantity (RQ) was calculated after normalized ΔΔCt was calculated. Topoisomerase (Top)-based DNA relaxation assays were performed to test whether the drugs inhibited Top1, Top2a, and Top2b. Top1 and Top2a assay kits were purchased from TopoGEN, and Top2b enzyme was purchased from Inspiralis. All Top-based assays followed manufacturer protocols.

paternal Ube3a-YFP [1] = experiment: High-content imaging of paternal UBE3A-YFP in cultured cortical neurons (GFP antibody-enhanced fluorescence); type: cell-based, mouse; details: for percent of neurons expressing UBE3A-YFP above threshold: cultured mouse cortical neurons, 72 hr treatment, n=4, DMSO control 0.03±0.004%; for unsilencing of paternal Ube3a-YFP by imaging, in words: library screen at 1 μM or dose response, 72 hr
Description: (§1) Cell culture and drug treatment: Primary cortical neurons were isolated and cultured by following established protocol. Briefly, cortical neurons were isolated from embryos (E13.5-15.5) carrying paternal Ube3a-YFP (Ube3a^m+/pYFP) or maternal deletion of Ube3a (Ube3a^m−/p+). Isolated cortical neurons were plated onto 384-well plates coated with poly-D-lysine (2.0×10^4 cell/well) for high-content imaging analysis or 6-well plates coated with poly-D-lysine (1.0×10^6 cells/well) for molecular and biochemical assays (western blot analysis, quantitative RT-PCR, and shRNA knockdown). Cultured neurons were maintained for 7 days, replacing medium every 3-4 days. On day 7 (DIV 7), the indicated compounds were added at 0.3-1 μM to neurons for 72 hr to unsilence paternal Ube3a or Ube3a-YFP.
Fluorescence immunocytochemistry and high content imaging analysis: Fluorescent immunocytochemistry and high content imaging analysis were performed by following previously described protocols with slight modifications. After 72 hr drug treatment, the neurons were fixed with 4% paraformaldehyde in 1×PBS at room temperature for 10 min. After brief washing with 1×PBS three times, neurons were permeabilized with 1% Triton-X 100 in 1×PBS at room temperature for 15 min, followed by blocking with 5% normal goat serum in 0.1% Triton-X 100 in 1×PBS at room temperature. 60 min after blocking, neurons were incubated with primary antibody, rabbit anti-GFP (1:1000, Novus Biologicals), at 4° C. overnight. Neurons were then briefly washed with 1×PBS followed by incubation with secondary antibody, goat anti-rabbit Alexa Fluor 488 (1:500, Thermo Fisher/Invitrogen) and Hoechst 33342 (Thermo Fisher), at room temperature for 60 min. Following secondary antibody incubation, neurons were washed with 1×PBS and fluorescent images were acquired using a BD Pathway 855 bioimager. All acquired images were analyzed by CellProfiler.
Fluorescence immunocytochemistry and high content imaging analysis: After 72-hour drug treatment, the neurons were fixed with 4% paraformaldehyde in phosphate-buffered saline (PBS) at room temperature for 10 min. After brief washing with PBS three times, neurons were permeabilized with 1% Triton-X 100 in PBS at room temperature for 10 min, followed by blocking with 5% normal goat serum in 0.1% Triton-X 100 in 1×PBS at room temperature. 30 min after blocking, neurons were incubated with primary antibodies rabbit anti-GFP (1:1000, NB 600308, Novus Biologicals) and mouse anti-NeuN (1:500, MAB 377, Millipore) at 4° C. overnight. Neurons were then briefly washed with 1×PBS followed by incubation with secondary antibodies goat anti-rabbit Alexa Fluor 488 (1:500, A11008, Thermo Fisher/Invitrogen) and anti-mouse Alexa Fluor 568 (1:500, A21124, ThermoFisher/Invitrogen) together with DAPI (4′,6-diamidino-2-phenylindole) at room temperature for 60 min. Following secondary antibody incubation, neurons were washed with 1×PBS and fluorescent images were acquired using Nikon Ti2 eclipse fluorescent microscope (Nikon Instruments Inc., Melville, NY, USA). Antibody-enhanced UBE3A-YFP fluorescence intensities were determined from DAPI and NeuN double-positive individual neurons in drug-treated wells and normalized to neurons in untreated wells. All acquired images were analyzed by Nikon NIS-Elements software (Nikon Instruments Inc., Melville, NY, USA). Sigmoidal curve fitting for the dose response analysis was performed using GraphPad Prism software version 8.0 (GraphPad Software, La Jolla, CA, USA). The calculated EC50 values (potencies) and Y value top plateau (estimated efficacies) enables comparative analyses of the relative potency and efficacy of the identified compounds.

paternal UBE3A = experiment: Western blot of UBE3A protein (anti-Ube3a) in AS model (Ube3a^m-/p+) cortical neurons; type: cell-based, mouse; details: 72 hr; Topotecan 0.3 μM, PHA533533 1.0 μM, Compound X 0.5 μM, Compound Y 0.5 μM; versus DMSO-treated WT neurons
Description: as §1
shRNA knockdown and western blot analysis: Lentiviral shRNAs of Top1 (TRCN0000011884), CDK2 (TRCN0000023146), and CDK5 (TRCN0000009520) were generated using previously described techniques. Cultured cortical neurons were infected at DIV 3 and virus was removed the next day (DIV 4). […] Following secondary antibody incubation, the membranes were rinsed (4-5 times) with 1×TBS-T at room temperature for 1 hr and ECL (Bio-Rad) was used to visualize detected proteins using an Amersham Imager 600 (AI600, GE Life Sciences).

[2] = tested on: cultured mouse cortical neurons; type: cell-based
Description: Cytotoxicity test: Cytotoxicity of drugs was tested in cultured mouse cortical neurons in vitro. The manufacturer's protocol was followed to measure luminescence proportional to the number of dead cells using Cyto Tox-Glo assay (Promega). 72 hr after drug treatment, AAF-Glo substrates were directed added to the drug-treated (or 0.1% DMSO vehicle-treated) cortical neurons and incubated them at room temperature for 15 min. Luminescence produced by dead-cell protease activity was then measured.

Ube3a-ATS = experiment: Quantitative RT-PCR of Ube3a-ATS mRNA in cultured cortical neurons; type: cell-based, mouse; details: qPCR normalized to β-actin, after drug treatment
Description: as §1
(§2) Quantitative real-time PCR and topoisomerase-based DNA relaxation assay: Quantitative real-time PCR (qPCR) was performed using previously reported protocols. Briefly, total RNA was extracted from cultured cortical neurons carrying Ube3a^m+/pYFP after drug treatment using Direct-zol RNA kit (Zymo Research). cDNA pool was synthesized using 2 μg of total RNA and qScript cDNA Supermix (Quantabio). qPCR was performed using SsoAdvanced Universal SYBR green Supermix (Bio-rad). […] Relative quantity (RQ) was calculated after normalized ΔΔCt was calculated. […]

Snrpn = experiment: Quantitative RT-PCR of Snrpn mRNA in cultured cortical neurons; type: cell-based, mouse; details: qPCR normalized to β-actin, after drug treatment
Description: as §1, §2

paternal Ube3a-YFP [3] = experiment: Western blot of UBE3A-YFP protein (anti-GFP) in Ube3a^m+/pYFP cortical neurons; type: cell-based, mouse; details: Topotecan 0.3 μM, PHA533533 1.0 μM; for unsilencing of paternal Ube3a-YFP with CDK2 knocked down: CDK2 shRNA knockdown; for unsilencing of paternal Ube3a-YFP with CDK5 knocked down: CDK5 shRNA knockdown; for UBE3A-YFP protein from the paternal allele (western blot): 72 hr, Compound X 0.5 μM, Compound Y 0.5 μM, EPZ5676 3 μM, EPZ5676 1 μM with P5-A4 1 μM, analogues 1 μM
Description: Cultured cortical neurons were infected at DIV 3 and virus was removed the next day (DIV 4). Neurons were further cultured and treated at DIV 10 with vehicle (0.1% DMSO) or the indicated compounds. To perform western blot analysis, the cultured neurons from 6-well plates were harvested and total protein was extracted with protein extraction buffer 72 hr after drug treatment, Bradford assays were performed to measure protein concentration, and 30 μg of total protein was loaded for Bis-polyacrylamide gel electrophoresis (Bio-Rad). Electrophoresed proteins were transferred to nitrocellulose membrane (0.45 μm, Bio-Rad). Membranes were blocked with 5% non-fat milk in 1×TBS-T at room temperature for 30 min followed by overnight 4° C. incubation with primary antibodies [rabbit anti-GFP (1:1000, Novus Biologicals), rabbit anti-Ube3a (1:1000, Bethyl Lab), rabbit anti-H3K79Me2 (1:1000, Abcam), rabbit anti-H3K79Me3 (1:1000, Abcam), and mouse anti-β-actin (1:5000, Sigma)]. The next day, the immunoblot membranes were rinsed with 1×TBS-T three times and incubated with HPR-conjugated secondary antibodies for 1 hr at room temperature (goat anti-rabbit @ 1:1000 or goat anti-mouse @ 1:1000, Vector Labs). Following secondary antibody incubation, the membranes were rinsed (4-5 times) with 1×TBS-T at room temperature for 1 hr and ECL (Bio-Rad) was used to visualize detected proteins using an Amersham Imager 600 (AI600, GE Life Sciences).

Ube3a-YFP mRNA = experiment: Quantitative RT-PCR of Ube3a-YFP mRNA in cultured cortical neurons; type: cell-based, mouse; details: qPCR normalized to β-actin, after drug treatment
Description: as §1, §2

Snord116 = experiment: Quantitative RT-PCR of Snord116 mRNA in cultured cortical neurons; type: cell-based, mouse; details: qPCR normalized to β-actin, after drug treatment
Description: as §1, §2

DOT1L = experiment: Western blot of H3K79 methylation (anti-H3K79me2, anti-H3K79me3) in cortical neurons; type: cell-based, mouse; details: PHA533533 1.0 μM, Compound X 0.5 μM, EPZ5676 3 μM
Description: shRNA knockdown and western blot analysis: Lentiviral shRNAs of Top1 (TRCN0000011884), CDK2 (TRCN0000023146), and CDK5 (TRCN0000009520) were generated using previously described techniques. Cultured cortical neurons were infected at DIV 3 and virus was removed the next day (DIV 4). Neurons were further cultured and treated at DIV 10 with vehicle (0.1% DMSO) or the indicated compounds. To perform western blot analysis, the cultured neurons from 6-well plates were harvested and total protein was extracted with protein extraction buffer 72 hr after drug treatment, Bradford assays were performed to measure protein concentration, and 30 μg of total protein was loaded for Bis-polyacrylamide gel electrophoresis (Bio-Rad). Electrophoresed proteins were transferred to nitrocellulose membrane (0.45 μm, Bio-Rad). Membranes were blocked with 5% non-fat milk in 1×TBS-T at room temperature for 30 min followed by overnight 4° C. incubation with primary antibodies [rabbit anti-GFP (1:1000, Novus Biologicals), rabbit anti-Ube3a (1:1000, Bethyl Lab), rabbit anti-H3K79Me2 (1:1000, Abcam), rabbit anti-H3K79Me3 (1:1000, Abcam), and mouse anti-β-actin (1:5000, Sigma)]. […] Following secondary antibody incubation, the membranes were rinsed (4-5 times) with 1×TBS-T at room temperature for 1 hr and ECL (Bio-Rad) was used to visualize detected proteins using an Amersham Imager 600 (AI600, GE Life Sciences).

T1 sequence (P11388 whole entry): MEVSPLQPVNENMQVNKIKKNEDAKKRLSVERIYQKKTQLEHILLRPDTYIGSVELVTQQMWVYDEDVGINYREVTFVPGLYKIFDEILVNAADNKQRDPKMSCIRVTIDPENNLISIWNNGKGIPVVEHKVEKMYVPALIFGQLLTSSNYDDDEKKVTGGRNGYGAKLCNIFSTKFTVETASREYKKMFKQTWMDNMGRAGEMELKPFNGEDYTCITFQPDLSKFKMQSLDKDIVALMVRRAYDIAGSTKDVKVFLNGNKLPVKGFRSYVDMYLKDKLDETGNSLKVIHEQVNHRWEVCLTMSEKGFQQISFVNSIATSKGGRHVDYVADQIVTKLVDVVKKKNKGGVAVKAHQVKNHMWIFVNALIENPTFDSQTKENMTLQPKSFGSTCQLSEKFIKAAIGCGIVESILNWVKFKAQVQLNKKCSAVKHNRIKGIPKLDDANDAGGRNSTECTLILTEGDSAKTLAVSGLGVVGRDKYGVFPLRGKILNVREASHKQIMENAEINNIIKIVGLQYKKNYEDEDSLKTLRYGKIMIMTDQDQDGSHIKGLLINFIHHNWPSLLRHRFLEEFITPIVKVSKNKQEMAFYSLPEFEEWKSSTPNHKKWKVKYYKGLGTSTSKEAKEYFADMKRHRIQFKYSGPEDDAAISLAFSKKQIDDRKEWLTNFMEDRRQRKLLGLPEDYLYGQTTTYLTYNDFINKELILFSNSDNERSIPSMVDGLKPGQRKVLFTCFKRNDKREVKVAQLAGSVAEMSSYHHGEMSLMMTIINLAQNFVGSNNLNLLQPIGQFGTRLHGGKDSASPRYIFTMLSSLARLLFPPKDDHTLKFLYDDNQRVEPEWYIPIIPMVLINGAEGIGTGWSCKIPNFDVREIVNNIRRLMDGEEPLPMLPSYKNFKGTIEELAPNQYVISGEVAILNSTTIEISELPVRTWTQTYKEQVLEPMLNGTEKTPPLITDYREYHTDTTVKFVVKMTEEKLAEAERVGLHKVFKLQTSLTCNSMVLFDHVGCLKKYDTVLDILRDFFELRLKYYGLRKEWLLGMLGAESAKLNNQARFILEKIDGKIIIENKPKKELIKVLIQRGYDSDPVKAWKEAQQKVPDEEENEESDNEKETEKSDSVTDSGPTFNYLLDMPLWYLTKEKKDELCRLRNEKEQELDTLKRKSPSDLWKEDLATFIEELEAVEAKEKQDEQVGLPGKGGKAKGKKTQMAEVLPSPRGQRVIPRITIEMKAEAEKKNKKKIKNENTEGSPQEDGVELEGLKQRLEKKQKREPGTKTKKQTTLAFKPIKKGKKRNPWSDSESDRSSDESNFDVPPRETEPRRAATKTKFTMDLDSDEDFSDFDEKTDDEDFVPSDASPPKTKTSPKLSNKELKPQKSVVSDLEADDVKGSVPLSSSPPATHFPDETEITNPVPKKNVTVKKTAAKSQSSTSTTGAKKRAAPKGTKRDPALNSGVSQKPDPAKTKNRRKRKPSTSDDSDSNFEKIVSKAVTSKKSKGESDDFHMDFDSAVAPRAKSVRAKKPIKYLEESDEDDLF

Molecule	inhibition of Top2a (Top2a)	percent of neurons expressing UBE3A-YFP above threshold (paternal Ube3a-YFP [1]) [%]	unsilencing of paternal Ube3a-YFP by imaging, in words (paternal Ube3a-YFP [1])	UBE3A protein from the paternal allele in AS model neurons (western blot) (paternal UBE3A)	Ube3a-ATS mRNA (Ube3a-ATS)	Snrpn mRNA (Snrpn)	unsilencing of paternal Ube3a-YFP with CDK2 knocked down (paternal Ube3a-YFP [3])	unsilencing of paternal Ube3a-YFP with CDK5 knocked down (paternal Ube3a-YFP [3])	mRNA of Ube3a-YFP (Ube3a-YFP mRNA)	Snord116 mRNA (Snord116)	UBE3A-YFP protein from the paternal allele (western blot) (paternal Ube3a-YFP [3])	methylation level on histone H3 lysine 79 (H3K79) (DOT1L)	also measured
ICRF-193 [reference compound]	inhibits the relaxation of catenated kDNA	–	–	–	–	–	–	–	–	–	–	–	–
CC[C@@]1(O)C(=O)OCc2c1cc1n(c2=O)Cc2cc3c(CN(C)C)c(O)ccc3nc2-1 [topotecan, reference compound]	–	37.3±3.7	unsilenced paternal UBE3A-YFP	unsilenced paternal UBE3A at levels that approached that of UBE3A levels in DMSO-treated neurons from WT mice	significantly decreased	decreased	did not unsilence paternal Ube3a-YFP unless neurons were treated	further enhanced	upregulated	decreased	–	–	LC50 / cytotoxicity compared to topotecan, in words [2]: comparable LC50; unsilencing of paternal Ube3a-YFP with Top1 knocked down (paternal Ube3a-YFP [3]; Top1 shRNA knockdown): occlude unsilencing; also recorded: occluded the ability
O=C(Cc1ccc2ccccc2c1)Nc1cc(C2CC2)[nH]n1 [PNU0292137]	–	–	could not produce appreciable increases	–	–	–	–	–	–	–	–	–	–
C[C@H](C(=O)Nc1cc(C2CC2)[nH]n1)c1ccc(N2CCOC2=O)cc1 [Compound P5-A4, (S)—N-(5-cyclopropyl-1H-pyrazol-3-yl)-2-(4-(2-oxooxazolidin-3-yl)phenyl)propenamide]	–	–	–	–	–	–	–	–	–	–	did not appreciably unsilence paternal Ube3a-YFP	–	–
CC(C)N(C[C@H]1O[C@@H](n2cnc3c(N)ncnc32)[C@H](O)[C@@H]1O)[C@H]1C[C@@H](CCc2nc3cc(C(C)(C)C)ccc3[nH]2)C1 [EPZ5676, reference compound]	–	–	–	–	–	–	–	–	–	–	did not appreciably unsilence paternal Ube3a-YFP	reduced methylation level on histone H3 lysine 79 (H3K79)	–
C[C@H](C(=O)Nc1cc(C2CC2)[nH]n1)c1ccc(N2CCCC2=O)cc1 [PHA533533]	partially inhibited Top2a	63.7±14.3	effectively unsilenced paternal Ube3a-YFP; also recorded: can unsilence paternal Ube3a-YFP	unsilenced paternal UBE3A at levels that approached that of UBE3A levels in DMSO-treated neurons from WT mice	significantly decreased; also recorded: downregulates Ube3a-ATS	decreased	did not unsilence paternal Ube3a-YFP unless neurons were treated	further enhanced	upregulated	decreased	increased UBE3A-YFP protein to levels approaching that of topotecan; also recorded: can produce UBE3A-YFP	reduced methylation level on histone H3 lysine 79 (H3K79)	potency (EC50) compared to topotecan, in words (paternal Ube3a-YFP [1]; dose response, normalized fluorescent intensity): slightly lower potency than topotecan
